We go through two molecules from publication PMC11059093 (Frontiers in Chemistry, 2024).

Data set [1] relates to SH-SY5Y. Put plainly: Hydrogen peroxide induced oxidative stress (ROS, DCFH-DA probe) in SH-SY5Y cells. The data set is classed as cell-based. The following applies: SH-SY5Y treated with 400 μM hydrogen peroxide for 12 h. The source says:
(§1) FIGURE 2 Cytotoxicity assay of 6b and 6c on SH-SY5Y (A) and BV2 (B). Protective effect of 6b and 6c against H2O2 induced SH-SY5Y oxidative stress (C).
The effect of 6b and 6c on the oxidative stress of SH-SY5H cells induced by hydrogen peroxide was investigated using DCFH-DA as the fluorescent probe ([Xu et al., 2021]).

For a further data set, the system named is BV2. The data set can be described thus: Cytotoxicity assay on BV2 cells. The data set is classed as cell-based. The following applies: BV2, 20 μM. How it is done: (§2) To further investigate the bioactivity of the compounds, cytotoxicity was evaluated on SH-SY5Y and BV2 cell lines (Figures 2A, B).
as §1

Data set [2] is described as follows: Oxygen radical absorbance capacity (ORAC-FL) assay. The following applies: compounds 5 µM, mean of n = 3 ± SD.
Method: The solution of 2,2′-azobis- (amidinopropane) dihydrochloride (AAPH) was prepared to a final concentration of 40 mM. The mixture of the tested compounds (20 µL) and FL (120 μL; 70 nM) was pre-incubated for 10 min at 37°C, 60 µL of the AAPH solution was added. The fluorescence was recorded every minute for 120 min (excitation, 485 nm; emission, 520 nm). The antioxidant curves (fluorescence versus time) were normalized to the curve of the blank.
Where f0 is the initial fluorescence reading at 0 min and fi is the fluorescence reading at time i. The net AUC was calculated by the expression: AUCsample—AUCblank. Regression equations between net AUC and Trolox concentration were calculated. ORAC-FL value of the tested compound expressed as Trolox equivalents.
The nature of data set [3]: Metal-chelating study by UV spectrophotometry. In kind it is physicochemical. The following applies: for Metal-chelating property: 50 µM compound with Cu^2+, Zn^2+, Fe^2+ or Fe^3+ (50 µM), HEPES pH 7.4, UV-vis; for Inflection point, concentration ratio of Cu^2+ to compound: 50 µM compound, 0–100 µM copper ion, inflection point method. The protocol: To further evaluate multi-target anti-AD potential, the metal-chelating properties of 6b and 6c were determined by UV spectrophotometry ([Geng et al., 2012]; [Lu et al., 2013]; [Hu et al., 2019]). […] While co-incubated with Fe^3+ or Fe^2+, the intensity at 255 nm was in different degrees decreased. The same result occurred for 6c. […] Next, the chelation ratios of 6b and 6c to Cu^2+ were measured and calculated using the inflection point method (Figures 3B, D). The inflection point appears when the concentration ratio of compound Cu^2+ to 6b or 6c is 0.5, so it can be inferred that the chelation ratio of compound 6b and 6c to Cu^2+ is 2:1.
6b and 6c (50 µM) were incubated with CuSO4, FeSO4, FeCl3, or ZnCl2 (50 µM) in buffer (20 mM HEPES, 150 mM NaCl, pH 7.4) for 30 min, and the absorption spectras were recorded at room temperature. For the stoichiometry of the compound–Cu^2+ complex, a fixed amount of 6b and 6c (50 µM) was mixed with growing amounts of copper ion (0–100 µM), and the difference UV−vis spectra were examined to investigate the ratio of ligand/metal in the complex.

Data set [4] has as its target T1, Cu^2+-induced Aβ1-42 aggregation (Homo sapiens, UniProt P05067).
T1 construct: Aβ1-42 (Sigma-Aldrich A9810, 20 μM) was dissolved in HEPES buffer; purchased Sigma-Aldrich A9810
The data set can be described thus: Cu^2+-induced Aβ1-42 aggregation, thioflavin T fluorometric detection. The data set is classed as biochemical. The following applies: ThT, compound stock 150 μM. How it is done: To further detect the ability of compounds 6b, CQ and MT to disaggregate or inhibit the Cu^2+-induced Aβ1-42 aggregation, we conducted thioflavin T fluorometric detection ([Hu et al., 2019]).
Detection of the compounds for disaggregated and inhibitory effects on Cu^2+ induced Aβ1-42 aggregation. Aβ1-42 (Sigma-Aldrich A9810, 20 μM) was dissolved in HEPES buffer (pH = 6.6, containing 1% ammonium hydroxide). 10 μL of Aβ1-42 was previously incubated with or without Cu^2+ at 37°C for 3 days to pre-fibrillation. 10 μL of 6b, CQ, and MT (150 μM, in DMSO) were incubated before or after the pre-fibrillation of Aβ1-42 at 37°C for 1 day. After incubation, 170 μL of thioflavin T (5 μM, in 50 mM glycine-NaOH buffer) was added to mix well. After incubation for 5 min, the Aβ1-42 aggregation was detected by Microplate Reader (HITACHI, F-4700) with excitation/emission at 450/485 nm.

Data set [5] can be described thus: Parallel artificial membrane permeability assay for the blood-brain barrier (PAMPA-BBB). The following applies: for pred (predicted BBB permeation): classified from PAMPA-BBB Pe.
A further data set deals with T2, Aβ1–42 (Homo sapiens, UniProt P05067).
T2 construct: Aβ1−42 (Sigma-Aldrich) was dissolved in NH4OH (1% v/v) to get a stock solution; purchased Sigma-Aldrich
T2 sequence (P05067 672-713 limits assumed): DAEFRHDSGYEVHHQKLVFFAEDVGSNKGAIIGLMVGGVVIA
Put plainly: Inhibition of self-mediated Aβ1–42 aggregation, thioflavin T fluorescence assay. The following applies: ThT assay, compounds 20 μM, mean of n = 3 ± SD. The data set is classed as biochemical.

Data set [6] has as its system SH-SY5Y. The data set can be described thus: Cytotoxicity assay on SH-SY5Y cells. In kind it is cell-based. The protocol: as §2, §1

T1 sequence (P05067 672-713 limits assumed): as above

Usually Papp stands for the rate of passage across a membrane or cell layer, normalised by area and donor concentration. Low readings indicate poor permeation, high ones ready permeation. The term inhibition denotes the relative decrease from the control value, in per cent. Higher therefore signals a strong effect. In the case of `COc1ccc2[nH]cc(CCNC(=O)c3ccc4cccc(O)c4n3)c2c1` [Compound 6b, 8-hydroxy-N-(2-(5-methoxy-1H-indol-3-yl)ethyl)quinoline-2-carboxamide], the “ROS production after pretreatment” value in the data set with SH-SY5Y [1] is on record as “reduced ROS production in a dose-dependent manner”. In addition, the Cytotoxicity entry in the data set on BV2 is recorded as “no significant cytotoxicity”; with SH-SY5Y [6] (5 μM), “no cytotoxicity”; with SH-SY5Y [6] (10 μM), “slight toxicity”. The same molecule yielded an ORAC in data set [2] of 2.76 ± 0.01 Trolox equivalents. The Metal-chelating property entry in data set [3] is “possess metal-chelating properties”. Moreover, the “Inflection point, concentration ratio of Cu^2+ to compound” value in data set [3] stood at 0.5. The “Disaggregation of Cu^2+-induced Aβ1-42 aggregation” value in data set [4] (Figure 4A) is recorded as “significantly disaggregated”. In addition, in data set [4] (Figure 4B), the “Inhibition of Cu^2+-induced Aβ1-42 aggregation” value is given as “distinct inhibitory effect”. Also, in data set [5] (PAMPA), the Papp is 6.91 ± 0.92 ×10⁻⁶ cm/s. Also, the “P e” value in data set [5] (PAMPA, can cross the blood-brain barrier) is given as greater than 4.7. In data set [5], the “pred (predicted BBB permeation)” value is on record as “CNS+ (Compounds of high BBB permeation (CNS+) Pe>4.7)”. Further, the inhibition at 20 µM against Aβ1–42 was determined as 63.2 ± 2.02%.

For `O=C(NCCc1c[nH]c2ccc(O)cc12)c1ccc2cccc(O)c2n1` [Compound 6c, 8-hydroxy-N-(2-(5-hydroxy-1H-indol-3-yl)ethyl)quinoline-2-carboxamide], the “ROS production after pretreatment” value in the data set on SH-SY5Y [1] is given as “reduced ROS production in a dose-dependent manner”. For the same molecule, the Cytotoxicity result is “no significant cytotoxicity” with BV2, “no cytotoxicity” in the data set on SH-SY5Y [6] (5 μM) and “slight toxicity” with SH-SY5Y [6] (10 μM). This molecule also returned an ORAC in data set [2] of 3.23 ± 0.02 Trolox equivalents. Besides, in data set [3], the Metal-chelating property result is “possess metal-chelating properties”. Besides, the “Inflection point, concentration ratio of Cu^2+ to compound” value in data set [3] turned out to be 0.5. In data set [5] (PAMPA), this molecule came in with a Papp of 2.96 ± 0.58 ×10⁻⁶ cm/s. For the same molecule, in data set [5], the “pred (predicted BBB permeation)” value is “CNS± (Compounds of uncertain BBB permeation (CNS+/ -) 4.7>Pe>1.8)”. In addition, on Aβ1–42, the inhibition at 20 µM was 40.3 ± 2.09%.
